Source: patent US10471030B2, “Immunomodulatory and differentiating function selective retinoid and rexinoid compounds in combination with immune modulators for cancer immunotherapy” (Io Therapeutics, Inc., priority 2017, dated 2019)

Assays:
Kasumi-1 cells = experiment: CFU experiments off and on stroma, Kasumi-1 cells; format: cell-based; settings: 10^−6 M ATRA, IRX5183, or 10^−7 M AM80
Source text: Data across three independent experiments.

MM cells = experiment: surface CD138 expression of MM cells (flow cytometry); format: cell-based, human; settings: BM stromal cell co-cultures, 1 μM
Method: (§1) 24-well plates were coated with 0.1% gelatin in PBS for 30 min at 37° C. The gelatin solution was removed, and the stromal cells were cultured overnight at a density of 5×10^4 cells/well to obtain a confluent monolayer. At that time, MM cell lines or primary MM cells (1×10^5 in 2 ml) were added to the stroma cultures. The stroma cocultures were incubated at 37° C. in RPMI containing 10% FCS, L-glutamine, and P/S, with or without AGN194310 (1 μM for 5 days), R115866 (1 μM for 5 days), IRX5183 (1 μM for 5 days), or BTZ (2.5 nM for 48 hr).
Following treatment, MM cells were collected, washed with PBS, and stained for 15 min at room temperature with phycoerythrin-conjugated (PE-conjugated) anti-CD138. Cells were washed to remove unbound antibody and evaluated in a FACSCalibur system (BD Biosciences). Stromal cells were identified by GFP expression, and viable cells were identified using 7-aminoactinomycin D (7-AAD). To calculate cell numbers, live GFP-cells were normalized to calibration beads.
Expression of CD138 is a hallmark of normal PC differentiation as well MM PCs.

[1] = test system: Naive CD4+ CD25− FoxP3− cells; experiment: Treg cell differentiation from naive T cells in vitro (FoxP3-GFP, flow cytometry); format: cell-based, mouse; settings: 10 nM
Method: To determine whether a RARα agonist could affect T cell differentiation, T cells were incubated with a RARα agonist to determine its effect on Foxp3 expression. Naive CD4^+ CD25^− FoxP3^− cells were purified from a Foxp3-GFP mouse using flow cytometry by sorting and isolating based upon a GFP^− phenotype. These cells were activated polyclonally with αCD3 in vitro in the presence of IL-2 and TGF-β. These cells were then cultured in media with various concentrations of compound IRX5183 (a RARα agonist) and the expression of FoxP3-GFP was analyzed by flow cytometry. The RARα agonist compound IRX5183 enhanced differentiation of immunosuppressive Treg cells and inhibited differentiation of inflammatory TH17 cells from naïve T cells in vitro (Table 2).

H929 Luc+ cells = experiment: subcutaneous xenograft model of MM-niche interactions with WT or Smo-KO stroma, bioluminescence; format: in vivo, NSG mice; settings: IRX 10 mg/kg i.p. daily, BTZ 0.5 mg/kg i.p. twice weekly
Method: 1×10^6 H929 Luc+ cells and 1×10^6 mouse BM stromal cells were resuspended in 100 μl […]®, diluted with RPMI (1:1), and injected subcutaneously into 16-week-old male NSG mice. After 4 days, treatment with BTZ (0.5 mg/kg i.p. twice weekly) and IRX (10 mg/kg i.p. daily) was initiated. Tumor burden was assessed by bioluminescence using the In Vivo Imaging System (PerkinElmer). For imaging, mice were exposed to 120 mg/kg D-luciferin via intraperitoneal injection […] before imaging and were anesthetized using isoflurane. Images were analyzed with Living Image Software, version 2.5 (PerkinElmer), and data were quantified as photons/second.
To study to what extent an RA-low environment created by the BM stroma and enhanced by MM cells via paracrine Hedgehog signaling contributes to BTZ resistance, a xenograft model of MM-niche interactions was developed. Each mouse carried 2 subcutaneous tumors consisting of H929 Luc+ cells and either WT (anterior tumors) or Smo-KO stroma (posterior tumors). Mice were treated with IRX (10 mg/kg i.p. daily), BTZ (0.5 mg/kg i.p. twice weekly), or a combination of both. The growth of tumors bearing WT or Smo-KO stroma was not different in untreated or IRX-treated groups (FIGS. 9 and 10). […] While some tumors in the treatment group receiving combined IRX and BTZ appeared to have regressed completely, even after anatomical study, this was not the case for all the mice in this group.

[2] = test system: H929 luciferase+ (Luc+) cells; experiment: systemic MM xenograft, bioluminescence; format: in vivo, NSG mice; settings: 4 weeks
Method: For the systemic MM model, 2×10^6 Luc+/GFP+ H929 cells were injected via the tail vein into 16-week-old male NSG mice. After engraftment, as determined by an exponential increase in bioluminescence, mice were treated with BTZ (0.5 mg/kg i.p.) twice weekly and with IRX (10 mg/kg) once daily. Tumor burden was assessed by bioluminescence, as above.
To test whether retinoids can enhance BTZ activity in MM, a systemic MM xenograft was developed by injecting 2×10^6 H929 luciferase+ (Luc+) cells via the tail vein of non-obese, diabetic, severe combined immunodeficiency IL-2 receptor γ-KO (NSG) mice. The animals were randomized to receive IRX, BTZ, or a combination of both, and disease burden was followed weekly by bioluminescence imaging (FIG. 6).

[3] = test system: MM H929 cell lines and MM CD138+ primary cells; experiment: mRNA expression of B cell and PC markers in MM cells, liquid or BM stroma co-culture (qRT-PCR); format: cell-based, human; settings: 1 μM for 5 days
Method: as §1
Total RNA was extracted using the RNeasy Mini Kit (QIAGEN) according to the manufacturer's instructions. cDNA was synthesized by reverse transcription using the iScript cDNA Synthesis Kit (Bio-Rad). qRT-PCR was performed with iTaq SYBR Green Supermix (Bio-Rad) using sequence specific primers. Gene expression was normalized to GAPDH, and relative quantification was calculated using ΔΔCt. All experiments were performed in duplicate and run on the Bio-Rad CFX96 machine.
The BM microenvironment (also called “niche”) limits PC differentiation by modulating retinoid signaling. A population of MM progenitors, phenotypically similar to B cells, is intrinsically resistant to BTZ and contributes to MRD and relapse. To investigate whether the BM niche plays a role in determining the phenotype of MM cells, the mRNA expression of B cell and PC markers in MM H929 cell lines (FIGS. 3A-D) and MM CD138+ primary cells (FIGS. 3E-H) was analyzed following co-culture with mouse BM stroma using human-specific primers. […] In contrast, co-culture of MM cells with BM stroma decreased the mRNA expression of B lymphocyte-induced maturation protein 1 (BLIMP1) and spliced X box-binding protein 1 (XBP1s) (FIG. 3B, C, F, G), which are critical mediators of PC differentiation.
The BM niche regulates hematopoietic stem cell (HSC) differentiation by expressing the retinoid-inactivating enzyme CYP26. CYP26 enzymes were highly expressed in BM mesenchymal cells, while their expression was barely detectable in MM cells. Since retinoid signaling promotes PC differentiation and potentiates Ig secretion, it was determined whether stromal CYP26 is responsible for inducing a B cell phenotype in MM cells. To this end, co-culture conditions were treated with the CYP26 inhibitor R115866 (R115) or the CYP26-resistant RA receptor α-selective (RARα-selective) retinoid IRX5183 (IRX).

RARα = experiment: transactivation assay, agonist activity; format: cell-based; settings: RARα versus RARβ, RARγ; FIG. 1
Source text: Transactivation assays employ expression plasmids encoding the full length receptors RARα, RARβ, and RAR ? . Reporter plasmids containing the herpes virus thymidine kinase promoter and the appropriate retinoic acid receptor response element (RAREs) are positioned upstream of an open coding region encoding firefly luciferase.

CC1(C)CCC(C)(C)c2c1cc(C(=O)Nc1cc(F)c(C(=O)O)c(F)c1)c(O)c2Cl [IRX5183]
clonogenic growth (CFU) (Kasumi-1 cells): decrease in clonogenic growth compared to control
surface CD138 expression (MM cells): restored CD138 expression
Treg cell Percent Differentiation (%) [1]: 90%
growth or response of tumors bearing WT versus Smo-KO stroma (H929 Luc+ cells): not different
disease burden (bioluminescence) ([2]; IRX in combination with BTZ): significant (P<0.01) decrease in disease burden
tumor burden (bioluminescence) ([2]; monotherapy, BTZ 0.5 mg/kg i.p. twice weekly, IRX 10 mg/kg once daily): decrease in tumor burden compared with untreated mice
mRNA expression of BCL6, BLIMP1, XBP1s, CHOP markers ([3]; BM stroma co-cultures): restored all markers to levels comparable to those of liquid control conditions
expression of differentiation markers ([3]; liquid conditions (absence of stroma)): induced comparable changes, irrespective of the presence or absence of BM stroma
agonist activity, activation of transcription (RARα): specifically activates RARα
